Test results taken from patent publication US20160222412A1, “R[…] WITH S[…]-LOOP” (Tocagen Inc., priority 2013, published 2016).

B1: 6A-466: RRV with yCD2 and minimum IRES, 6As, base 183 to 544 of SEQ ID NO:41 (nucleic acid, listed as Encephalomyocarditis virus)
DNA: AGGAAGCAGTTCCTCTGGAAGCTTCTTGAAGACAAACAACGTCTGTAGCGACCCTTTGCAGGCAGCGGAACCCCCCACCTGGCGACAGGTGCCTCTGCGGCCAAAAGCCACGTGTATAAGATACACCTGCAAAGGCGGCACAACCCCAGTGCCACGTTGTGAGTTGGATAGTTGTGGAAAGAGTCAAATGGCTCTCCTCAAGCGTATTCAACAAGGGGCTGAAGGATGCCCAGAAGGTACCCCATTGTATGGGATCTGATCTGGGGCCTCGGTGCACATGCTTTACATGTGTTTAGTCGAGGTTAAAAANCGTCTAGGCCCCCCGAACCACGGGGACGTGGTTTTCCTTTGAAAAACACGAT
modifications: (492)..(492) “n” can be present or absent, if present n is “A”

What was measured:
[1] = Intravenous Toca 511 in Balb/c mice, long-term vector biolocalization study; format: in vivo
Excerpt: Intravenous injection of Toca 511 into Balb/C mice. 2.35×10̂6 or 2.35×10̂5 TU of Toca 511 was intravenously administered to 8-week-old female Balb/C mice. Approximately 180 days post infection, genomic DNA from various tissues was harvested for bio-locolization study. Genomic DNA from abnormal tissues such as thymus or lymph node was extracted for sequence analysis of the envelope and IRES-yCD2 cassette.
RRV can undergo changes in the length of the oligo adenosine in the A bulge of the EMCV IRES in vivo. […] In a vector biolocalization study conducted as part of a preclinical package to support initiation of clinical trials, Toca 511 was injected intravenously into a permissive mouse strain (Balb/c mice) to evaluate long-term vector bio-localization. […] DNA from the abnormal thymus or lymph nodes of 3 mice were harvested for molecular PCR cloning of proviral sequences, followed by sequencing analysis. One feature was that there were multiple copies of the virus including recombinants with endogenous mouse MCF envelope sequences present, as occurs with lymphomagenesis with ecotropic MLV infection (Fan, 1997). Further analyses are planned for a future publication. […] It appears that the oligo A number drifts preferentially towards longer oligo A in the A bulge. However, the nature of this preference was undefined in the in vivo study.

U87-MG cells = assay: yCD2 protein expression by immunoblot in infected U87-MG cells; format: cell-based, human; conditions: fully infected U87-MG cells
Experimental: RRVs containing various numbers of A's in the J-K bifurcation region express similar levels of transcripts but different levels of protein expression. The viral supernatant from HT1080 cells was then used to infect naive U87-MG cells at multiplicity of infection (MOI) of 0.1. At day 10 post infection, when the cells were fully infected, cellular viral RNA levels were measured by quantitative real-time polymerase chain reaction (qRT-PCR), and protein expression level of yCD2 was examined by immunoblotting (Perez et al., 2012). The cellular viral RNA expression levels were measured using two different primer sets, located in the env (5′Env2: 5′-[…]-3′ (SEQ ID NO:47), 3′Env2: 5′-[…]-3′ (SEQ ID NO:48), probe: 5′FAM-[…]-3′BHQ (SEQ ID NO:49)) and in yCD2 region (5′yCD2: 5′-[…]-3′ (SEQ ID NO:50), 3′yCD2: 5′-[…]-3′ (SEQ ID NO:51), probe: 5′FAM-[…]-3′BHQ (SEQ ID NO:52)), respectively, (FIG. 2). The relative level of RNA from each vector was calculated using 2-^ΔΔ(Ct) method with respect to the vector containing the 6As. […] Therefore, the effect of the number of A's in the loop were analyzed with another transgene for which the protein expression assay was well defined. […]
Immunoblot and cell-based yCD2 enzymatic assay. […] Quantity One software (Bio-Rad) was used to quantify the signal of yCD2 and GAPDH detected on the immunoblots. […]

Molecule	mice with abnormalities in lymphoid tissues ([1]; higher doses, 180 days, depending on the cohort)	change of oligo A length in A bulge of integrated proviruses in vivo ([1]; intravenous, approximately 180 days, abnormal thymus or lymph node)	yCD2 protein expression in comparison to the 6A variant with full-length IRES (U87-MG cells)
Toca 511: RRV with a 7A IRES expressing yCD2 (pAC3-yCD2; SEQ ID NO:22)	10-20%	heterogeneous expansions of 7A to 8A, 9A, 10A, 11A and 12A and a contraction of 7A to 6A	
B1			shows expression of yCD2
